According to ChEMBL document CHEMBL1147724, “Synthesis and in vitro antileukemic activity of some new 1,3-(oxytetraethylenoxy)cyclotriphosphazene derivatives” (2006):
In brackets after ≈: the same amount, converted by molar mass. Activity calls are given as the source filed them. The calls are words filed in the database; no cut-off is given here.

Experiments:
Format in all cases: functional
HL-60 = test: Antiproliferative activity against human HL60 cell line by MTT assay at 4 ug/ml; conditions: for IC50: read-out: ID50 (the source's name)
L1210 = test: Antiproliferative activity against mouse L1210 cell line by MTT assay at 4 ug/ml; conditions: for IC50: read-out: ID50 (the source's name)
MOLT-4 = test: Antiproliferative activity against human MOLT4 cell line by MTT assay at 4 ug/ml; conditions: for IC50: read-out: ID50 (the source's name)
P388 = test: Antiproliferative activity against mouse P388 cell line by MTT assay at 4 ug/ml; conditions: for IC50: read-out: ID50 (the source's name)
BALB/3T3 = test: Antiproliferative activity against BALB/3T3 cell line by MTT assay at 4 ug/ml; conditions: Mus musculus; for IC50: read-out: ID50 (the source's name)

Row | Structure (SMILES) | IC50 (HL-60) [µg/mL] | IC50 (L1210) [µg/mL] | IC50 (MOLT-4) [µg/mL] | IC50 (P388) [µg/mL] | ID50 (BALB/3T3) | IC50 (BALB/3T3) [µg/mL] | ID50 (HL-60) | ID50 (L1210) | ID50 (MOLT-4) | ID50 (P388)
1 | O=C1c2ccccc2C(=O)c2c(NCCNP34=NP(Cl)(=NP(Cl)(Cl)=N3)OCCOCCOCCOCCO4)cccc21 (stereo not given) | 38.3 (≈ 54.8 µM) | 52.8 (≈ 75.6 µM) | 29.6 (≈ 42.4 µM) | 32.8 (≈ 46.9 µM) | inactive |  |  |  |  | 
2 | O=Cc1ccccc1OP12=NP(Oc3ccccc3C=O)(Oc3ccccc3C=O)=NP(Oc3ccc4ccccc4c3)(=N1)OCCOCCOCCOCCO2 (stereo not given) | 2.81 (≈ 3.37 µM) | 2.75 (≈ 3.3 µM) | 3.09 (≈ 3.71 µM) | 2.55 (≈ 3.06 µM) | inactive |  |  |  |  | 
3 | O=Cc1ccccc1OP12=NP(Oc3ccccc3C=O)(=NP(Oc3ccccc3C=O)(Oc3ccccc3C=O)=N1)OCCOCCOCCOCCO2 (stereo not given) | 2.7 (≈ 3.33 µM) | 3.2 (≈ 3.94 µM) | 3.2 (≈ 3.94 µM) | 3.2 (≈ 3.94 µM) |  | 12.1 (≈ 14.9 µM) |  |  |  | 
4 | ClCC/N=C\c1ccccc1OP12=NP(Oc3ccccc3/C=N\CCCl)(=NP(Oc3ccccc3/C=N\CCCl)(Oc3ccccc3/C=N\CCCl)=N1)OCCOCCOCCOCCO2 (stereo not given) | 2.9 (≈ 2.74 µM) | 3.2 (≈ 3.03 µM) | 2.1 (≈ 1.99 µM) | 3.2 (≈ 3.03 µM) |  | 25.3 (≈ 23.9 µM) |  |  |  | 
5 | ClCCNP1(NCCCl)=NP2(NCCCl)=NP(NCCCl)(=N1)OCCOCCOCCOCCO2 (stereo not given) |  |  |  |  | inactive |  | inactive | inactive | inactive | inactive
6 | ClCC/N=C\c1ccccc1OP12=NP(Oc3ccccc3/C=N\CCCl)(Oc3ccccc3/C=N\CCCl)=NP(Oc3ccc4ccccc4c3)(=N1)OCCOCCOCCOCCO2 (stereo not given) | 2.89 (≈ 2.84 µM) | 2.43 (≈ 2.39 µM) | 3.11 (≈ 3.05 µM) | 2.7 (≈ 2.65 µM) | inactive |  |  |  |  | 
7 | O=C1c2ccccc2C(=O)c2c(NCCNP34=NP(NCCCl)(=NP(NCCCl)(NCCCl)=N3)OCCOCCOCCOCCO4)cccc21 (stereo not given) | 18.9 (≈ 22.8 µM) | 29.3 (≈ 35.4 µM) | 27.2 (≈ 32.8 µM) | 19.4 (≈ 23.4 µM) | inactive |  |  |  |  | 
8 | O=Cc1ccccc1OP12=NP(Oc3ccccc3C=O)(Oc3ccccc3C=O)=NP(NCCNc3cccc4c3C(=O)c3ccccc3C4=O)(=N1)OCCOCCOCCOCCO2 (stereo not given) | 2.23 (≈ 2.33 µM) | 2.42 (≈ 2.53 µM) | 1.14 (≈ 1.19 µM) | 2.9 (≈ 3.03 µM) |  | 33.2 (≈ 34.7 µM) |  |  |  | 
9 | O=C1c2ccccc2C(=O)c2c(NCCNP34=NP(Oc5ccccc5/C=N\CCCl)(=NP(Oc5ccccc5/C=N\CCCl)(Oc5ccccc5/C=N\CCCl)=N3)OCCOCCOCCOCCO4)cccc21 (stereo not given) | 2.07 (≈ 1.81 µM) | 2.69 (≈ 2.36 µM) | 3.08 (≈ 2.7 µM) | 2.16 (≈ 1.89 µM) |  | 9.54 (≈ 8.37 µM) |  |  |  | 
